Measured values from ChEMBL document CHEMBL5316318, “Structural Modification and Pharmacological Evaluation of Substituted Quinoline-5,8-diones as Potent NSD2 Inhibitors” (J Med Chem, 2023).
Activity calls are given as the source filed them. The calls are words filed in the database; no cut-off is given here.

Key:
[1] = target: Neural cell adhesion molecule 1 (Homo sapiens) (UniProt P13591); test: Inhibition of NCAM1 transcriptional activation in human KMS-11 cells assessed as reduction in NCAM1 mRNA expression at 0.5 uM by qRT-PCR analysis; format: cell-based
Sequence of Neural cell adhesion molecule 1 (Homo sapiens) (P13591 whole entry): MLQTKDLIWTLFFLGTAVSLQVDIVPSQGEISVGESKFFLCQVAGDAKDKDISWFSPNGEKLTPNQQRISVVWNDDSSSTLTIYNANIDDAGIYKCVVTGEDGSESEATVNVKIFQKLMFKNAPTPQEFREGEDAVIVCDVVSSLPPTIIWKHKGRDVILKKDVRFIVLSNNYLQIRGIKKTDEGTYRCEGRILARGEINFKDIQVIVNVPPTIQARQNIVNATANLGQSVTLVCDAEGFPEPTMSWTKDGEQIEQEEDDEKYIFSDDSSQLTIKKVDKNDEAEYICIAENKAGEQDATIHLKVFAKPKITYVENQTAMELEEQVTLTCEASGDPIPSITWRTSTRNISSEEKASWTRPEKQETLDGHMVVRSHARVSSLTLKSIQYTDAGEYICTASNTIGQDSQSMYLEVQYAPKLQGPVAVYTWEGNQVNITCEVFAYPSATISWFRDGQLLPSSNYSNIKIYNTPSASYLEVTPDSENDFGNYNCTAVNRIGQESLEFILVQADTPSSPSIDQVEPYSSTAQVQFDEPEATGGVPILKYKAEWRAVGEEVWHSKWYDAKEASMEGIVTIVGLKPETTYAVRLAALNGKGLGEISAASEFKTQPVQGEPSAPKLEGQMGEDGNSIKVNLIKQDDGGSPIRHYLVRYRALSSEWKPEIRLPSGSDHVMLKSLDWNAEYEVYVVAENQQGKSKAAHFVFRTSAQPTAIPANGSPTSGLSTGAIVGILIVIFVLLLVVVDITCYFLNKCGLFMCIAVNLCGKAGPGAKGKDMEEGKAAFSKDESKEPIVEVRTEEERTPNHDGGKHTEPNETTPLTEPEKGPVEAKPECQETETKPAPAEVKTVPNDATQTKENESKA

[2] = target: Protransforming growth factor alpha (Homo sapiens) (UniProt P01135); test: Inhibition of TGFA transcriptional activation in human KMS-11 cells assessed as reduction in TGFA mRNA expression at 0.5 uM by qRT-PCR analysis; format: cell-based
Sequence of Protransforming growth factor alpha (Homo sapiens) (P01135 whole entry): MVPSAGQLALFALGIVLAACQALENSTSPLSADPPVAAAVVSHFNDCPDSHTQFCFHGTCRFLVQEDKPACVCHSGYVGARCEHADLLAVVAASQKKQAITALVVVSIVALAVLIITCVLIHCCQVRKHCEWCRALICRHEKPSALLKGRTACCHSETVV

[3] = target: Protein arginine N-methyltransferase 5 (Homo sapiens, UniProt O14744); test: Inhibition of PRMT5 (unknown origin) by AlphaLISA assay
[4] = tested on: KMS-11; test: Induction of apoptosis in human KMS-11 cells assessed as early apoptotic cells at 0.5 uM incubated for 72 hrs by Annexin V-FITC/PI staining based flow cytometry analysis (reference value: 3.96%); format: functional
[5] = target: Histone-lysine N-methyltransferase EZH2 (Homo sapiens, UniProt Q15910); test: Inhibition of EZH2 (unknown origin) using SAM as substrate preincubated for 10 mins followed by substrate addition and measured after 4 hrs by HTRF analysis
[6] = target: Histone-lysine N-methyltransferase, H3 lysine-36 specific (Homo sapiens, UniProt Q96L73); test: Inhibition of NSD1 (unknown origin)
Sequence of Histone-lysine N-methyltransferase, H3 lysine-36 specific (Q96L73 whole entry): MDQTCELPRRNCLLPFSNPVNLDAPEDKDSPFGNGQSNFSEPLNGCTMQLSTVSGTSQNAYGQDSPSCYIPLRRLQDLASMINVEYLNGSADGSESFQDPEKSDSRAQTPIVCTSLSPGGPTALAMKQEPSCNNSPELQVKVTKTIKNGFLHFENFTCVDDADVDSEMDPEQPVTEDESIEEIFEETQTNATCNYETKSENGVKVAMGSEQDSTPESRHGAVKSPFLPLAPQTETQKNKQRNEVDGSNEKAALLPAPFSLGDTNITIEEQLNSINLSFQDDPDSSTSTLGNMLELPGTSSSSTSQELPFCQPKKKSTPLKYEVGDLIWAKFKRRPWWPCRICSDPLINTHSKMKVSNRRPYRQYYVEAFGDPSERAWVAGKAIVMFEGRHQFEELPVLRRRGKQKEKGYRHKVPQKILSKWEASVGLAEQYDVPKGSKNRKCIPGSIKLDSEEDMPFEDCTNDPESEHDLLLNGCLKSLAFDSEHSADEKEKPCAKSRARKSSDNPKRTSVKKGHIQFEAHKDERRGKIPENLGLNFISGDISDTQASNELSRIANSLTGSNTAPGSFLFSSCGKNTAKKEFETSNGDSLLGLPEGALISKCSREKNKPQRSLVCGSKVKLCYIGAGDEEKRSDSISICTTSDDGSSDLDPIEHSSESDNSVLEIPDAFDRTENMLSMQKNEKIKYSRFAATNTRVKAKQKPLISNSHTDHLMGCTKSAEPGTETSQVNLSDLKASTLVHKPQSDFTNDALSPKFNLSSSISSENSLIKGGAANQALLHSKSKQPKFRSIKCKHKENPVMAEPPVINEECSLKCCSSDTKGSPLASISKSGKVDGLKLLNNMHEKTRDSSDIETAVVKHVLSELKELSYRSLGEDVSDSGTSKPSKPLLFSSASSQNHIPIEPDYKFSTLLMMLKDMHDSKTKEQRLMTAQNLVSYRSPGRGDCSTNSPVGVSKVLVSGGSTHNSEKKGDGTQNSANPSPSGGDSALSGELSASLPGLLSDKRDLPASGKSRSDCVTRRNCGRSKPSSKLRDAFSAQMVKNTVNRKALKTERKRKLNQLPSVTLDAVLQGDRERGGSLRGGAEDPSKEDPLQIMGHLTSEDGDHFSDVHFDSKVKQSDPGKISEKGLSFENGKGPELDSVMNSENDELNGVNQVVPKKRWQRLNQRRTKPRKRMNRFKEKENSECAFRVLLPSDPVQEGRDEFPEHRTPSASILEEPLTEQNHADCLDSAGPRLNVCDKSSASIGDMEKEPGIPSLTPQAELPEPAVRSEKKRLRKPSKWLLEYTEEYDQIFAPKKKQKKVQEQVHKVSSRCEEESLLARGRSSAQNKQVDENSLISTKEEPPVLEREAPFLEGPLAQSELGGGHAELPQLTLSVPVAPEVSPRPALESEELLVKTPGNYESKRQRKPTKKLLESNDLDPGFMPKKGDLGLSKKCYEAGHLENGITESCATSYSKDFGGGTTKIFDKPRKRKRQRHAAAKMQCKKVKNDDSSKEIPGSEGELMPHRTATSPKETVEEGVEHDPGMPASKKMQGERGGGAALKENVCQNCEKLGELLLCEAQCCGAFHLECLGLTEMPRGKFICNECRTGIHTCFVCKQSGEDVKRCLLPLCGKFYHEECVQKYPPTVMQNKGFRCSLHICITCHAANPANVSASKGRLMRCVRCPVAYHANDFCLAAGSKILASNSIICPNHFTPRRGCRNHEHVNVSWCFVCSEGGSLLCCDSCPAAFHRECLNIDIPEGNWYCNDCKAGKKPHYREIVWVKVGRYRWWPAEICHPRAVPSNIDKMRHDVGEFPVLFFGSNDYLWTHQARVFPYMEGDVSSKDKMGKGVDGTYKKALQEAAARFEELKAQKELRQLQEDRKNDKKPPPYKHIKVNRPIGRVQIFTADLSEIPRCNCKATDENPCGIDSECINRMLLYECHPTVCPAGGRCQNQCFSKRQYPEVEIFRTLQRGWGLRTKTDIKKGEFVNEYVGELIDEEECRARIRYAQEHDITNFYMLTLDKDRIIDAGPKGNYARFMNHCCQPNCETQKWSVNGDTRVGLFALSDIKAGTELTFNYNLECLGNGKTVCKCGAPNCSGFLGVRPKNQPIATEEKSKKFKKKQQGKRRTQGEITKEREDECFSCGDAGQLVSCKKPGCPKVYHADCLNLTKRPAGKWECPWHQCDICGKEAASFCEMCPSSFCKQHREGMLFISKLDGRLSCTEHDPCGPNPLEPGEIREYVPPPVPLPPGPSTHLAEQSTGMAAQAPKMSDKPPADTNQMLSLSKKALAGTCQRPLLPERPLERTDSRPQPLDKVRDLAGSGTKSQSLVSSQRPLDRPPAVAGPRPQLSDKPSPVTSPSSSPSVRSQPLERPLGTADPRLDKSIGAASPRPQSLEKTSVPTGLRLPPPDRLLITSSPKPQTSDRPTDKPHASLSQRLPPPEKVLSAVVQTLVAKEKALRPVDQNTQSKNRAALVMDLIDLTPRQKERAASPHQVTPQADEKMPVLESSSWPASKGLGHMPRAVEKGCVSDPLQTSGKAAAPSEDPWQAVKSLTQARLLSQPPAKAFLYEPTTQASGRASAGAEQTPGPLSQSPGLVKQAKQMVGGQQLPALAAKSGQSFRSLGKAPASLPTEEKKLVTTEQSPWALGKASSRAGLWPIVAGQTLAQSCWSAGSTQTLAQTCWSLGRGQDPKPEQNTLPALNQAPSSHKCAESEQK

[7] = tested on: KMS-11; test: Induction of apoptosis in human KMS-11 cells assessed as upregulation of BIM protein expression at 0.2 to 0.8 uM by Western blot analysis; format: functional, cell-based; conditions: dose 0.2-0.8 µM
[8] = tested on: KMS-11; test: Modulation of FoxO signaling pathway in human KMS-11 cells at 1 uM incubated for 48 hrs by RNA-Seq analysis; format: cell-based; conditions: filed as modulator
[9] = tested on: KMS-11; test: Induction of apoptosis in human KMS-11 cells assessed as late apoptotic cells at 0.8 uM incubated for 72 hrs by Annexin V-FITC/PI staining based flow cytometry analysis (reference value: 6.47%); format: functional
[10] = tested on: RS4-11; test: Antiproliferative activity against human RS4-11 cells harboring NSD2 E1099K mutant assessed as inhibition of cell growth incubated for 6 days by CCK-8 assay; format: functional, cell-based; conditions: RS4-11, 144 h
[11] = AUClast in ICR mouse at 3 mg/kg, po measured for 24 hrs by LC-MS/MS analysis; format: ADME, organism-based; parameters: dose 3 mg/kg, time 24 hrs, route po; conditions: in vivo
[12] = Toxicity in SCID mouse xenografted with human KMS-11 cells assessed as adverse effects at 75 to 150 mg/kg, po administered daily for 21 days and measured every 3 days; format: organism-based; conditions: in vivo, 504 h, dose 75-150 mg/kg, time 21 day
[13] = tested on: KMS-11; test: Induction of apoptosis in human KMS-11 cells assessed as dead cells at 0.2 uM incubated for 72 hrs by Annexin V-FITC/PI staining based flow cytometry analysis (reference value: 6.48%); format: functional
[14] = tested on: KMS-11; test: Induction of apoptosis in human KMS-11 cells assessed as downregulation of BCL-XL protein expression at 0.2 to 0.8 uM by Western blot analysis; format: functional, cell-based; conditions: dose 0.2-0.8 µM
[15] = tested on: HL-60; test: Antiproliferative activity against human HL-60 cells harboring wild type NSD2 assessed as inhibition of cell growth incubated for 6 days by CCK-8 assay; format: functional, cell-based; conditions: HL-60, 144 h
[16] = tested on: OCI-AML2; test: Antiproliferative activity against human OCI-AML2 cells harboring wild type NSD2 assessed as inhibition of cell growth incubated for 6 days by CCK-8 assay; format: functional, cell-based; conditions: OCI-AML2, 144 h
[17] = Toxicity in SCID mouse xenografted with human KMS-11 cells assessed as body weight loss at 75 to 150 mg/kg, po administered daily for 21 days and measured every 3 days; format: organism-based; conditions: in vivo, 504 h, dose 75-150 mg/kg, time 21 day
[18] = tested on: KMS-11; test: Antitumor activity against human KMS-11 cells xenografted in SCID mouse assessed as tumor growth inhibition at 150 mg/kg, po administered daily for 21 days and measured every 3 days relative to control; format: functional; conditions: KMS-11, 504 h, time 21 day, read-out: TGI
[19] = target: Protransforming growth factor alpha (Homo sapiens) (UniProt P01135); test: Inhibition of TGFA transcriptional activation in human KMS-11 cells assessed as reduction in H3K36me2 level in promoter region by ChIP-qPCR analysis; format: cell-based
[20] = tested on: KMS-11; test: Induction of apoptosis in human KMS-11 cells assessed as late apoptotic cells at 0.5 uM incubated for 72 hrs by Annexin V-FITC/PI staining based flow cytometry analysis (reference value: 6.47%); format: functional
[21] = tested on: OPM-2; test: Antiproliferative activity against NSD2 translocated human OPM-2 cells assessed as inhibition of cell growth incubated for 6 days by CCK-8 assay; format: functional, cell-based; conditions: OPM-2, 144 h
[22] = tested on: KMS-11; test: Modulation of Hippo signaling pathway in human KMS-11 cells at 1 uM incubated for 48 hrs by RNA-Seq analysis; format: cell-based; conditions: filed as modulator
[23] = tested on: Daudi; test: Antiproliferative activity against human Daudi cells assessed as inhibition of cell growth incubated for 6 days by CCK-8 assay; format: functional, cell-based; conditions: 144 h
[24] = tested on: KMS-11; test: Induction of apoptosis in human KMS-11 cells assessed as live cells at 0.2 uM incubated for 72 hrs by Annexin V-FITC/PI staining based flow cytometry analysis (reference value: 83.1%); format: functional
[25] = target: Hepatocyte growth factor receptor (Homo sapiens) (UniProt P08581); test: Inhibition of MET transcriptional activation in human KMS-11 cells assessed as reduction in MET mRNA expression at 0.5 uM by qRT-PCR analysis; format: cell-based
Sequence of Hepatocyte growth factor receptor (Homo sapiens) (P08581 whole entry): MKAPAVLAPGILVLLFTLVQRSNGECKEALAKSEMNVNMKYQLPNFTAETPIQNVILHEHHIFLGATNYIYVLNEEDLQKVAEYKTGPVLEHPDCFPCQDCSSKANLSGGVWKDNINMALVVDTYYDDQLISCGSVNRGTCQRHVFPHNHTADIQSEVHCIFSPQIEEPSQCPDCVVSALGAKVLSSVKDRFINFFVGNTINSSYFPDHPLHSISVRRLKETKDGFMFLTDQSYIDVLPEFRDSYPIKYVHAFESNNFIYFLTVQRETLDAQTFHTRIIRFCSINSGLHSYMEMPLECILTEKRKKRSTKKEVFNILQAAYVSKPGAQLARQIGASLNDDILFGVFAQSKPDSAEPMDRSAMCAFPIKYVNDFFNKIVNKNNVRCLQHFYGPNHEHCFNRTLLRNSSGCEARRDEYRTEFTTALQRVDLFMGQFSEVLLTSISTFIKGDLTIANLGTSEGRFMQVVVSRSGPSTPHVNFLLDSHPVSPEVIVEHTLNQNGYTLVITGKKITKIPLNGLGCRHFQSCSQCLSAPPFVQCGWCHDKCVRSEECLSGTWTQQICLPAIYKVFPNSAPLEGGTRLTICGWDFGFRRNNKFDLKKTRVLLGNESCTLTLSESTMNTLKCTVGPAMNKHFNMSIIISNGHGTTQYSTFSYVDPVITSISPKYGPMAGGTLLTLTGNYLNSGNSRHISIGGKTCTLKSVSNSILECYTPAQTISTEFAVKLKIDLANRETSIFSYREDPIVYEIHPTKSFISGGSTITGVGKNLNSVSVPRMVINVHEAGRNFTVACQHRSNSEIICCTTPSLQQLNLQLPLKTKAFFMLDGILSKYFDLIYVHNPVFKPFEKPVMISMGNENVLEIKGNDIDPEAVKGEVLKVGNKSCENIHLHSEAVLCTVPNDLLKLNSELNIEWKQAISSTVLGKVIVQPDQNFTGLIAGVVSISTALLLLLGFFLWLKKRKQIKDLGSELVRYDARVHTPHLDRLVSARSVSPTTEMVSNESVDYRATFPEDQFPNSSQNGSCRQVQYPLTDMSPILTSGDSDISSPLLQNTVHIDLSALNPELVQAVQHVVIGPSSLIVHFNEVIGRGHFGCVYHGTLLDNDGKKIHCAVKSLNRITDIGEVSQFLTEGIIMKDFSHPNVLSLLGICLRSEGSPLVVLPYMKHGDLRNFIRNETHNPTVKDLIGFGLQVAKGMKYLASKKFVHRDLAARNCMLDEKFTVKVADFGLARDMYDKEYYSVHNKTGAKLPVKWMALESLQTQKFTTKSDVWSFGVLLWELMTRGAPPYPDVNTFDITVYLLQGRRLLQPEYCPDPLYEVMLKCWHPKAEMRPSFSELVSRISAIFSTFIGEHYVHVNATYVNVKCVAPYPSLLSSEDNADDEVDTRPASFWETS

[26] = tested on: KMS-11; test: Induction of apoptosis in human KMS-11 cells assessed as late apoptotic cells at 0.2 uM incubated for 72 hrs by Annexin V-FITC/PI staining based flow cytometry analysis (reference value: 6.47%); format: functional
[27] = Antiproliferative activity against human MINO cells assessed as inhibition of cell growth incubated for 6 days by CCK-8 assay; format: functional, cell-based; conditions: 144 h
[28] = tested on: KMS-11; test: Induction of apoptosis in human KMS-11 cells assessed as live cells at 0.5 uM incubated for 72 hrs by Annexin V-FITC/PI staining based flow cytometry analysis (reference value: 83.1%); format: functional
[29] = target: Neural cell adhesion molecule 1 (Homo sapiens) (UniProt P13591); test: Inhibition of NCAM1 transcriptional activation in human KMS-11 cells assessed as reduction in H3K36me2 level in promoter region by ChIP-qPCR analysis; format: cell-based
[30] = Cmax in ICR mouse at 3 mg/kg, po measured for 24 hrs by LC-MS/MS analysis; format: ADME, organism-based; parameters: dose 3 mg/kg, time 24 hrs, route po; conditions: in vivo
[31] = tested on: U2932; test: Antiproliferative activity against human U2932 cells assessed as inhibition of cell growth incubated for 6 days by CCK-8 assay; format: functional, cell-based; conditions: U2932, 144 h
[32] = tested on: MOLT-4; test: Antiproliferative activity against human MOLT-4 cells harboring wild type NSD2 assessed as inhibition of cell growth incubated for 6 days by CCK-8 assay; format: functional, cell-based; conditions: MOLT-4, 144 h
[33] = tested on: KMS-11; test: Antitumor activity against human KMS-11 cells xenografted in SCID mouse assessed as tumor growth inhibition at 75 mg/kg, po administered daily for 21 days and measured every 3 days relative to control; format: functional; conditions: KMS-11, 504 h, time 21 day, read-out: TGI
[34] = tested on: KMS-11; test: Induction of apoptosis in human KMS-11 cells assessed as early apoptotic cells at 0.8 uM incubated for 72 hrs by Annexin V-FITC/PI staining based flow cytometry analysis (reference value: 3.96%); format: functional
[35] = tested on: KMS-11; test: Induction of apoptosis in human KMS-11 cells assessed as dead cells at 0.5 uM incubated for 72 hrs by Annexin V-FITC/PI staining based flow cytometry analysis (reference value: 6.48%); format: functional

**Q.** For CC#CC(=O)NC12CC(NC3=C(Cl)C(=O)c4ncccc4C3=O)(C1)C2, which inhibition [1] is on record?
**A.** Active

**Q.** And the inhibition [2]?
**A.** Active

**Q.** And the IC50 [3]?
**A.** > 10 µM

**Q.** And the Activity [4]?
**A.** 14.1%

**Q.** And the IC50 [5]?
**A.** 0.25 µM

**Q.** And the IC50 [6]?
**A.** 0.69 µM

**Q.** What about the Activity [7] of the same molecule?
**A.** Active

**Q.** What about the Activity [8] of the same molecule?
**A.** Active

**Q.** And the Activity [9]?
**A.** 19.7%

**Q.** What about the IC50 [10] of the same molecule?
**A.** 0.304 µM

**Q.** And the AUC(0-t) at 24 h [11]?
**A.** 42700 ng·h/mL

**Q.** What about the Activity [12] of the same molecule?
**A.** Non-Toxic

**Q.** What about the Activity [13] of the same molecule?
**A.** 6.54%

**Q.** What about the Activity [14] of the same molecule?
**A.** Active

**Q.** What about the IC50 [15] of the same molecule?
**A.** 2.66 µM

**Q.** And the IC50 [16]?
**A.** 2.6 µM

**Q.** And the Activity [17]?
**A.** Non-Toxic

**Q.** And the inhibition in vivo at 150 mg/kg [18]?
**A.** 58.4%

**Q.** And the inhibition [19]?
**A.** Active

**Q.** And the Activity [20]?
**A.** 15.7%

**Q.** What about the IC50 [21] of the same molecule?
**A.** 2.09 µM

**Q.** And the Activity [22]?
**A.** Active

**Q.** And the IC50 [23]?
**A.** 12.8 µM

**Q.** What about the Activity [24] of the same molecule?
**A.** 81.3%

**Q.** And the inhibition [25]?
**A.** Active

**Q.** And the Activity [26]?
**A.** 7.79%

**Q.** What about the IC50 [27] of the same molecule?
**A.** 9.9 µM

**Q.** What about the Activity [28] of the same molecule?
**A.** 63.8%

**Q.** And the inhibition [29]?
**A.** Active

**Q.** And the Cmax [30]?
**A.** 4780 ng/mL

**Q.** What about the IC50 [31] of the same molecule?
**A.** 9.11 µM

**Q.** And the IC50 [32]?
**A.** 1.23 µM

**Q.** And the inhibition in vivo at 75 mg/kg [33]?
**A.** 56%

**Q.** What about the Activity [34] of the same molecule?
**A.** 19.3%

**Q.** And the Activity [35]?
**A.** 6.33%
